From patent US8895761B2, “4-phenylpyrane-3,5-diones, 4-phenylthiopyrane-3,5-diones and 2-phenylcyclohexane-1,3,5-triones as herbicides” (Syngenta Limited, priority 2007, dated 2014) come the findings set out here.

Type in all cases: in vivo
The subject of test [1] is Avena fatua (AVEFA). The test is described as follows: Pre-emergence herbicidal glasshouse test, Avena fatua. To be noted: Avena fatua, 312 h, rate 250 g/ha, evaluated after 13 days, scale 100 = total damage to plant, 0 = no damage. How it is done: (§1) Seeds of a variety of test species were sown in standard soil in pots. After cultivation for one day (pre-emergence) or after 8 days cultivation (post-emergence) under controlled conditions in a glasshouse (at 24/16° C., day/night; 14 hours light; 65% humidity), the plants were sprayed with an aqueous spray solution derived from the formulation of the technical active ingredient in acetone/water (50:50) solution containing 0.5% Tween 20 (polyoxyethelyene sorbitan monolaurate, CAS RN 9005-64-5). The test plants were then grown in a glasshouse under controlled conditions in a glasshouse (at 24/16° C., day/night; 14 hours light; 65% humidity) and watered twice daily. After 13 days for pre and post-emergence, the test was evaluated ([…] to plant; 0=no damage to plant).
(§2) Setaria faberi (SETFA), Lolium perenne (LOLPE), Alopecurus myosuroides (ALOMY), Echinochloa crus-galli (ECHCG) and Avena fatua (AVEFA).

Test [2] concerns Lolium perenne (LOLPE). Kind of test: Post-emergence herbicidal glasshouse test, Lolium perenne. To be noted: 312 h, rate 250 g/ha, evaluated after 13 days, scale 100 = total damage to plant, 0 = no damage. The procedure:
as §1, §2

The subject of test [3] is Echinochloa crus-galli (ECHCG). Kind of test: Pre-emergence herbicidal glasshouse test, Echinochloa crus-galli. To be noted: Echinochloa crus-galli, 312 h, rate 250 g/ha, evaluated after 13 days, scale 100 = total damage to plant, 0 = no damage. How it is done: as §1, §2
Test [4] has as its system Alopecurus myosuroides (ALOMY). The test is described as follows: Post-emergence herbicidal glasshouse test, Alopecurus myosuroides. To be noted: Alopecurus myosuroides, 312 h, rate 250 g/ha, evaluated after 13 days, scale 100 = total damage to plant, 0 = no damage. How it is done: as §1, §2
Test [5] has as its system Echinochloa crus-galli (ECHCG). Kind of test: Post-emergence herbicidal glasshouse test, Echinochloa crus-galli. To be noted: Echinochloa crus-galli, 312 h, rate 250 g/ha, evaluated after 13 days, scale 100 = total damage to plant, 0 = no damage. How it is done: as §1, §2
For test [6], the system named is Avena fatua (AVEFA). Kind of test: Post-emergence herbicidal glasshouse test, Avena fatua. To be noted: Avena fatua, 312 h, rate 250 g/ha, evaluated after 13 days, scale 100 = total damage to plant, 0 = no damage. How it is done:
as §1, §2

The subject of test [7] is Alopecurus myosuroides (ALOMY). The test is described as follows: Pre-emergence herbicidal glasshouse test, Alopecurus myosuroides. To be noted: Alopecurus myosuroides, 312 h, rate 250 g/ha, evaluated after 13 days, scale 100 = total damage to plant, 0 = no damage. How it is done:
as §1, §2

Test [8] deals with Lolium perenne (LOLPE). The test is described as follows: Pre-emergence herbicidal glasshouse test, Lolium perenne. To be noted: 312 h, rate 250 g/ha, evaluated after 13 days, scale 100 = total damage to plant, 0 = no damage. The procedure: as §1, §2

For the molecule `CCc1cc(-c2ccc(Cl)cc2F)ccc1C1=C(O)[C@@]2(C)CC[C@H](O2)C1=O` (racemic) [Compound A-14], the pest or weed control (as a rule, how far the test organism was held down) at 250 g/ha amounted to 50% with Avena fatua (AVEFA) [1]; 100% in the test with Lolium perenne (LOLPE) [2]; 80% in test [3]; 80% in test [4]; 100% in test [5]; 100% with Avena fatua (AVEFA) [6]. Also, the pest or weed control at 250 g/ha was found to be 50% in test [7] and 80% with Lolium perenne (LOLPE) [8].
As for `Cc1cc(-c2ccc(Cl)cc2F)cc(C)c1C1=C(O)[C@@]2(C)CC[C@H](O2)C1=O` (racemic) [Compound A-53], the pest or weed control at 250 g/ha worked out at 60% in the test on Avena fatua (AVEFA) [1]; 100% in the test with Lolium perenne (LOLPE) [2]; 100% in test [3]; 90% in test [4]; 100% in test [5]; 80% in the test with Avena fatua (AVEFA) [6]. The pest or weed control at 250 g/ha in test [7] came to 50%; with Lolium perenne (LOLPE) [8] it was 90%.
On to `CCc1cc(-c2ccc(Cl)cc2Cl)ccc1C1=C(O)[C@@]2(C)CC[C@H](O2)C1=O` [Compound A-13], for which the pest or weed control at 250 g/ha in the test with Avena fatua (AVEFA) [1] is 0%; in the test on Lolium perenne (LOLPE) [2], 100%; in test [3], 50%; in test [4], 70%; in test [5], 100%; in the test on Avena fatua (AVEFA) [6] it was 80%. Besides, the pest or weed control at 250 g/ha in test [7] came out at 0%; in the test with Lolium perenne (LOLPE) [8], 20%.
`CCc1cc(-c2ccc(Cl)cc2)ccc1C1=C(O)C(C)(C)OC(C)(C)C1=O` [Compound A-35]: the pest or weed control at 250 g/ha in the test on Avena fatua (AVEFA) [1] stood at 40%; with Lolium perenne (LOLPE) [2], 90%; in test [3], 90%; in test [4] it was 100%; in test [5] it was 100%; in the test on Avena fatua (AVEFA) [6], 80%. Also, the pest or weed control at 250 g/ha in test [7] was determined as 50%; in the test on Lolium perenne (LOLPE) [8] it was 80%.
Turning to `CCc1cc(-c2ccc(Cl)cc2Cl)ccc1C1=C(O)C(C)(C)OC(C)(C)C1=O` [Compound A-36], the pest or weed control at 250 g/ha stood at 0% in the test on Avena fatua (AVEFA) [1]; 40% in the test with Lolium perenne (LOLPE) [2]; 0% in test [3]; 30% in test [4]; 60% in test [5]; 20% in the test on Avena fatua (AVEFA) [6]. In addition, the pest or weed control at 250 g/ha (in test [7]; in the test on Lolium perenne (LOLPE) [8]) was 0% each time.
Turning to `CCc1cc(-c2ccc(Cl)c(Cl)c2)ccc1C1=C(O)C(C)(C)OC(C)(C)C1=O` [Compound A-38], the pest or weed control at 250 g/ha came to 0% with Avena fatua (AVEFA) [1]; 70% in the test on Lolium perenne (LOLPE) [2]; 50% in test [3]; 80% in test [4]; 80% in test [5]; 50% with Avena fatua (AVEFA) [6]. For the same molecule, the pest or weed control at 250 g/ha in test [7] was found to be 0%; with Lolium perenne (LOLPE) [8], 70%.
For the molecule `CCc1cc(-c2ccc(Cl)s2)ccc1C1=C(O)C(C)(C)OC(C)(C)C1=O` [Compound A-41], the pest or weed control at 250 g/ha stood at 30% with Avena fatua (AVEFA) [1]; 60% with Lolium perenne (LOLPE) [2]; 0% in test [3]; 50% in test [4]; 70% in test [5]; 0% with Avena fatua (AVEFA) [6]. Moreover, the figures for the pest or weed control at 250 g/ha (in test [7]; with Lolium perenne (LOLPE) [8]) were 0% and 20%, respectively.
For the molecule `CCc1cc(-c2ccc(Cl)c(F)c2)ccc1C1=C(O)C(C)(C)OC(C)(C)C1=O` [Compound A-42], the pest or weed control at 250 g/ha was determined as 20% with Avena fatua (AVEFA) [1]; 90% in the test on Lolium perenne (LOLPE) [2]; 90% in test [3]; 90% in test [4]; 100% in test [5]; 80% in the test with Avena fatua (AVEFA) [6]. Moreover, the pest or weed control at 250 g/ha in test [7] stood at 10%; in the test on Lolium perenne (LOLPE) [8], 90%.
Turning to `CCc1cc(-c2ccc(Cl)cn2)ccc1C1=C(O)C(C)(C)OC(C)(C)C1=O` [Compound A-43], the pest or weed control at 250 g/ha came to 30% with Avena fatua (AVEFA) [1]; 80% with Lolium perenne (LOLPE) [2]; 70% in test [3]; 80% in test [4]; 100% in test [5]; 70% in the test on Avena fatua (AVEFA) [6]. Further, the pest or weed control at 250 g/ha in test [7] worked out at 20%; in the test with Lolium perenne (LOLPE) [8], 50%.
In the case of `CCc1cc(-c2ccc(Cl)c(F)c2Cl)ccc1C1=C(O)C(C)(C)OC(C)(C)C1=O` [Compound A-46], the pest or weed control at 250 g/ha in the test with Avena fatua (AVEFA) [1] worked out at 0%; with Lolium perenne (LOLPE) [2], 40%; in test [3], 30%; in test [4], 50%; in test [5], 80%; with Avena fatua (AVEFA) [6], 0%. The pest or weed control at 250 g/ha in test [7] amounted to 0%; with Lolium perenne (LOLPE) [8], 40%.
With `CCc1cc(-c2ccc(Cl)c(F)c2F)ccc1C1=C(O)C(C)(C)OC(C)(C)C1=O` [Compound A-47], the pest or weed control at 250 g/ha in the test with Avena fatua (AVEFA) [1] was 40%; with Lolium perenne (LOLPE) [2], 60%; in test [3], 30%; in test [4], 90%; in test [5], 100%; with Avena fatua (AVEFA) [6] it was 70%. In addition, the pest or weed control at 250 g/ha in test [7] came to 0%; in the test with Lolium perenne (LOLPE) [8], 50%.
`CCc1cc(-c2ccc(Cl)c(Cl)c2F)ccc1C1=C(O)C(C)(C)OC(C)(C)C1=O` [Compound A-48]: the pest or weed control at 250 g/ha in the test with Avena fatua (AVEFA) [1] came out at 0%; in the test on Lolium perenne (LOLPE) [2], 30%; in test [3], 0%; in test [4], 50%; in test [5], 100%; in the test on Avena fatua (AVEFA) [6] it was 20%. For the same molecule, the pest or weed control at 250 g/ha (in test [7]; in the test on Lolium perenne (LOLPE) [8]) was 0% in each case.
Turning to `CCc1cc(-c2ccc(F)cc2)ccc1C1=C(O)C(C)(C)OC(C)(C)C1=O` [Compound A-50], the pest or weed control at 250 g/ha in the test on Avena fatua (AVEFA) [1] turned out to be 60%; with Lolium perenne (LOLPE) [2] it was 100%; in test [3], 90%; in test [4], 90%; in test [5], 100%; in the test with Avena fatua (AVEFA) [6] it was 80%. Also, the pest or weed control at 250 g/ha in test [7] was 60%; in the test on Lolium perenne (LOLPE) [8], 100%.
In the case of `CCc1cc(-c2ccc(Cl)cc2F)ccc1C1=C(O)C(C)(C)OC(C)(C)C1=O` [Compound A-51], the pest or weed control at 250 g/ha is 0% with Avena fatua (AVEFA) [1]; 50% in the test with Lolium perenne (LOLPE) [2]; 20% in test [3]; 60% in test [4]; 70% in test [5]; 60% in the test with Avena fatua (AVEFA) [6]. Further, the pest or weed control at 250 g/ha (in test [7]; with Lolium perenne (LOLPE) [8]) was 0% each time.
